Literature values as cited in patent US6087346A, “Sigma receptor ligands and the use thereof” (Cambridge Neuroscience, Inc., priority 1996, dated 2000).

Key:
sigma sites = conditions: in words; cited from earlier work
gerbils = conditions: in vivo, Rao et al.; cited from earlier work
[1] = test system: NMDA-type of glutamate receptors; conditions: Rao et al.; cited from earlier work
DA sites = conditions: cited from earlier work

SMILES	affinity for sigma sites (sigma sites)	protection against ischemia (gerbils)	biochemical effects on NMDA-type glutamate receptors [1]	affinity for DA sites (DA sites)
OCCN1CCN(CCCN2c3ccccc3C=Cc3ccccc32)CC1 [opipramol]	potent sigma receptor ligand	protect against ischemia in gerbils	biochemical effects consistent with modulation of the NMDA-type of glutamate receptors	–
O=C(CCCN1CCC2(CC1)C(=O)NCN2c1ccccc1)c1ccc(F)cc1 [spiperone]	essentially no affinity for sigma sites	–	–	high affinity for DA sites
